Experimental data from patent publication US10364256B2 (GlaxoSmithKline Intellectual Property Development Limited, priority 2015, dated 2019).
pEC50, pIC50: −log10 of the molar value.

Tests used:
[1] = tested on: NQO1 specific enzyme activity in BEAS-2B cells (marker for NRF2 activation); experiment: BEAS-2B NQO1 MTT Assay; assay type: cell-based; conditions: Homo sapiens, compound incubated 48 hours, read-out: EC50 (NQO1 specific enzyme activity induction)
Procedure, shortened: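 BEAS-2B cells treated with compound for 48 h at 37 °C, then lysed; NQO1 activity in lysates measured kinetically by MTT reduction at A570 over 30 min. pEC50 from 3-parameter fit of ΔOD/min versus log concentration; lysate also taken for Cell Titer Glo.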

[2] = biological target: T1, full length Keap1 protein / full length NRF2 protein (Homo sapiens, UniProt Q14145); experiment: NRF2-Keap1 TR-FRET Low Protein Assay; assay type: binding; conditions: 1.25 nM Keap1 FlagHis and 2.5 nM biotin-NRF2 added
T1 construct: full length NRF2 protein and full length Keap1 protein (Keap1 exists a dimer) are used; His
Procedure, shortened: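 Flag-tagged full-length Keap1 was preincubated with compound (3-fold series) for 2.25 h at 37 °C in Tris pH 8.0/MgCl2/NaCl/BSA/DTT/CHAPS. Biotin-Avi-NRF2 (added at 2.5 nM) was then bound for 1.25 h at 4 °C. Eu-streptavidin/anti-Flag-APC TR-FRET (665/615 nm) was read after 1 h at RT, and pIC50 came from a four-parameter fit.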

T1 sequence (Q14145 whole entry): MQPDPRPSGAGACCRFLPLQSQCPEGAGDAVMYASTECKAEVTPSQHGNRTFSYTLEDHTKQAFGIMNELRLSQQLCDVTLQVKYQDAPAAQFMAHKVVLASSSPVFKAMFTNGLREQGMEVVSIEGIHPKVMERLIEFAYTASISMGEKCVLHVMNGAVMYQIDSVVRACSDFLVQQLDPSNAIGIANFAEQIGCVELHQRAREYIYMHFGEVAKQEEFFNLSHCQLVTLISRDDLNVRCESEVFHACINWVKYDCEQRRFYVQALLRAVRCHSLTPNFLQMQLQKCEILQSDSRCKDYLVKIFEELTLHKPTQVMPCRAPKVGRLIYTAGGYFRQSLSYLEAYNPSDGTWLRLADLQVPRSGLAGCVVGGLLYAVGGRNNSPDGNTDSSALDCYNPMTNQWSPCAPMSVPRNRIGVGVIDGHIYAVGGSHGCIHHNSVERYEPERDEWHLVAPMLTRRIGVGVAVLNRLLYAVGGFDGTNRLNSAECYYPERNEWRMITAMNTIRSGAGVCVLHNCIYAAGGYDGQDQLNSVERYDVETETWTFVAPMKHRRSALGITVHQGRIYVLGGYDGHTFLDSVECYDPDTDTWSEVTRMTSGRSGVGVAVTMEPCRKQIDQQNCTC

## Cn1cc([C@@H]2C[C@H]2c2c(C(=O)O)cnn2-c2cccc(-c3cccc(OCC4CCCSC4)c3)c2)nn1 (mixture of isomers) [Example 144, 5-((1,2-trans)-2-(1-Methyl-1H-1,2,3-triazol-4-yl)cyclopropyl)-1-(3′-((tetrahydro-2H-thiopyran-3-yl)methoxy)-[1,1′-biphenyl]-3-yl)-1H-pyrazole-4-carboxylic Acid]
[1]
  pEC50: 7.00 to 8.00
[2]
  pIC50: 7.00 to 8.00

## Cn1cc([C@@H]2C[C@H]2c2c(C(=O)O)cnn2-c2cccc(-c3cccc(OCC4CCC(F)(F)CC4)c3)c2)nn1 (racemic) [Example 145, 1-(3′-((4,4-Difluorocyclohexyl)methoxy)-[1,1′-biphenyl]-3-yl)-5-((1,2-trans)-2-(1-methyl-1H-1,2,3-triazol-4-yl)cyclopropyl)-1H-pyrazole-4-carboxylic acid]
[1]
  pEC50: 6.00 to 7.00
[2]
  pIC50: 7.00 to 8.00

## Cn1cc([C@@H]2C[C@H]2c2c(C(=O)O)cnn2-c2cccc(-c3cccc(OC[C@H]4CC[C@H](C(F)(F)F)CC4)c3)c2)nn1 (racemic) [Example 146, 5-((1,2-trans)-2-(1-Methyl-1H-1,2,3-triazol-4-yl)cyclopropyl)-1-(3′-(((1r,4R)-4-(trifluoromethyl)cyclohexyl)methoxy)-[1,1′-biphenyl]-3-yl)-1H-pyrazole-4-carboxylic acid]
[1]
  pEC50: 7.00 to 8.00
[2]
  pIC50: 7.00 to 8.00

## Cn1cc([C@@H]2C[C@H]2c2c(C(=O)O)cnn2-c2cccc(-c3cccc(OCC4CCCC(C(F)(F)F)C4)c3)c2)nn1 (mixture of isomers) [Example 147, 5-((1,2-trans)-2-(1-Methyl-1H-1,2,3-triazol-4-yl)cyclopropyl)-1-(3′-((3-(trifluoromethyl)cyclohexyl)methoxy)-[1,1′-biphenyl]-3-yl)-1H-pyrazole-4-carboxylic acid]
[1]
  pEC50: 7.00 to 8.00
[2]
  pIC50: 7.00 to 8.00

## Cn1cc([C@@H]2C[C@H]2c2c(C(=O)O)cnn2-c2cccc(-c3cccc(OCC4CCCCC4C(F)(F)F)c3)c2)nn1 (mixture of isomers) [Example 148, 5-((1,2-trans)-2-(1-Methyl-1H-1,2,3-triazol-4-yl)cyclopropyl)-1-(3′-((2-(trifluoromethyl)cyclohexyl)methoxy)-[1,1′-biphenyl]-3-yl)-1H-pyrazole-4-carboxylic acid]
[1]
  pEC50: 7.00 to 8.00
[2]
  pIC50: > 8.00

## Cn1cc([C@@H]2C[C@H]2c2c(C(=O)O)cnn2-c2cccc(-c3cccc(OCC4CCSCC4)c3)c2)nn1 (racemic) [Example 149, 5-((1,2-trans)-2-(1-Methyl-1H-1,2,3-triazol-4-yl)cyclopropyl)-1-(3′-((tetrahydro-2H-thiopyran-4-yl)methoxy)-[1,1′-biphenyl]-3-yl)-1H-pyrazole-4-carboxylic acid]
[1]
  pEC50: 6.00 to 7.00
[2]
  pIC50: 7.00 to 8.00

## CCC1CCC(COc2cccc(-c3cccc(-n4ncc(C(=O)O)c4[C@@H]4C[C@H]4c4cn(C)nn4)c3)c2)CC1 (mixture of isomers) [Example 150, 1-(3′-((4-Ethylcyclohexyl)methoxy)-[1,1′-biphenyl]-3-yl)-5-((1,2-trans)-2-(1-methyl-1H-1,2,3-triazol-4-yl)cyclopropyl)-1H-pyrazole-4-carboxylic acid]
[1]
  pEC50: 7.00 to 8.00
[2]
  pIC50: 7.00 to 8.00

## Cn1cc([C@@H]2C[C@H]2c2c(C(=O)O)cnn2-c2cccc(-c3cccc(OCC4CCCCC4)c3F)c2)nn1 (racemic) [Example 152, 1-(3′-(Cyclohexylmethoxy)-2′-fluoro-[1,1′-biphenyl]-3-yl)-5-((1,2-trans)-2-(1-methyl-1H-1,2,3-triazol-4-yl)cyclopropyl)-1H-pyrazole-4-carboxylic Acid]
[1]
  pEC50: 7.00 to 8.00
[2]
  pIC50: 7.00 to 8.00

## Cn1cc([C@@H]2C[C@H]2c2c(C(=O)O)cnn2-c2cccc(-c3cccc(OC(C4CCCCC4)C(F)(F)F)c3)c2)nn1 (mixture of isomers) [Example 157, 1-(3′-(1-Cyclohexyl-2,2,2-trifluoroethoxy)-[1,1′-biphenyl]-3-yl)-5-((1,2-trans)-2-(1-methyl-1H-1,2,3-triazol-4-yl)cyclopropyl)-1H-pyrazole-4-carboxylic Acid]
[1]
  pEC50: 7.00 to 8.00
[2]
  pIC50: 7.00 to 8.00
